This note sets out measurements from US4471117A, “3,4-Dihydro-2H-pyrimido(2,1-b)benzothiazoles” (Janssen Pharmaceutica N.V., priority 1980, dated 1984).

Assay [1] concerns the target T1, monoamine oxidase (type B, β-phenylethylamine substrate) (Rattus norvegicus, UniProt P19643).
T1 sequence (P19643 1-520): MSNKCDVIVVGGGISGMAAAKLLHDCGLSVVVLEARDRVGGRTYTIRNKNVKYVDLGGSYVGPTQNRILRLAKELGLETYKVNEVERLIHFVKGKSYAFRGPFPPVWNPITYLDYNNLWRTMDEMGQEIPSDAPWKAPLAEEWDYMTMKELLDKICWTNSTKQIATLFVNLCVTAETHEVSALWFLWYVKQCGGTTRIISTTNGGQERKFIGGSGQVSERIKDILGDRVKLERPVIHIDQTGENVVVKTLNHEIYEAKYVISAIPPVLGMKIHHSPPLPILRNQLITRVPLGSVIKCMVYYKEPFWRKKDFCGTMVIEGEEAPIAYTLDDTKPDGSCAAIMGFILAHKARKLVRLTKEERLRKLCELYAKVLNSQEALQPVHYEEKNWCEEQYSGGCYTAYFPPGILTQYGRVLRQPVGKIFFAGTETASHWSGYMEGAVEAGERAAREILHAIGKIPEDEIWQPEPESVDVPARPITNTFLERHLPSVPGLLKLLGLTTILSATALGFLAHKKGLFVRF
The assay is described as follows: In-vitro monoamine oxidase inhibition, [14C]phenylethylamine hydrochloride as substrate. Conditions: rat brain monoamine oxidase extract, 37° C., 20 minutes, pH 7.4, read-out: I.C.50 -value using as substrate [14C]phenylethylamine.HCl. It is filed as biochemical.

Assay [2] deals with T2, monoamine oxidase (type A, tryptamine substrate) (Rattus norvegicus, UniProt P21396).
T2 sequence (P21396 1-526): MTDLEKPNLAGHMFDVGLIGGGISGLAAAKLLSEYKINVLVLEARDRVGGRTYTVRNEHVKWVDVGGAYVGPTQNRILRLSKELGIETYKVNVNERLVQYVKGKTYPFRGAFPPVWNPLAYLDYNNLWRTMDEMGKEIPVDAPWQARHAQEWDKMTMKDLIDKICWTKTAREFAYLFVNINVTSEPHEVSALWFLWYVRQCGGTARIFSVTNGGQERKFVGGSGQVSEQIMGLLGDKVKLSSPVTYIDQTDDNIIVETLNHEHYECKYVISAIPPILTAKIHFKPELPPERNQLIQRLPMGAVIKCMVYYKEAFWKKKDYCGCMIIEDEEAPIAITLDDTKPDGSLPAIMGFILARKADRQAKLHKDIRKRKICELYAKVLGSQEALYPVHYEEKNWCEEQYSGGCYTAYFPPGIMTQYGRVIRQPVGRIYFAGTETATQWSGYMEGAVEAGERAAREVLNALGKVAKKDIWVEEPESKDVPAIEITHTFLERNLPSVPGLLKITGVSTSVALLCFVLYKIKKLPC
The assay is described as follows: In-vitro monoamine oxidase inhibition, [14C]tryptamine as substrate. It is filed as biochemical. Particulars: rat brain monoamine oxidase extract, 37° C., 20 minutes, pH 7.4, read-out: I.C.50 -value using as substrate [14C]tryptamine.

Counter-ions that a name gives are not always drawn. Like-named read-outs stand apart in the source and are kept apart here. Where only a bound is given, the exact number is not on record here.

In the case of `CCC(CC)Nc1ccc2c(c1)N1CCCN=C1S2` [7-NHCH(C2 H5)2, N-(1-ethylpropyl)-3,4-dihydro-2H-pyrimido[2,1-b]benzothiazol-7-amine], the IC50 in assay [1] (Table 1) is 0.305 µM; in assay [2] (Table 1), 0.0034 µM.

Consider `Cc1ccc(CNc2ccc3c(c2)SC2=NCCCN23)cc1` [8-NHCH2 (4-CH3C6 H4)], for which the IC50 in assay [1] (Table 1) turned out to be 0.02 µM; in assay [2] (Table 1) it was 1 µM.

Regarding `CCOC(=O)C(=CNc1ccc2c(c1)SC1=NCCCN12)C(=O)OCC` [8-NHCHC(COOEt)2], the IC50 in assay [1] (Table 1) amounted to 0.16 µM; in assay [2] (Table 1) it was 20 µM.

On to `COc1cc(CNc2ccc3c(c2)SC2=NCCCN23)cc(OC)c1OC` [8-NHCH2 [3,4,5-(OCH3)3C6 H2]], for which the figures for the IC50 in assay [1] (Table 1) and in assay [2] (Table 1) were 0.034 µM and 20 µM, respectively.

Consider `c1cc2c(cc1C1CCCCC1)SC1=NCCCN12` [8-c.C6 H11], for which the IC50 in assay [1] (Table 1) was 0.05 µM; in assay [2] (Table 1), 0.0085 µM.

Regarding `C=CC[N+]1=C2Sc3ccc(CCCCCCCCC)cc3N2CCC1`, the IC50 in assay [1] (Table 2) came out at 0.38 µM; in assay [2] (Table 2), 0.25 µM.

On to `c1cc2c(cc1NC1CCCC1)N1CCCN=C1S2` [7-NHc.C5 H9], for which the IC50 amounted to 0.12 µM in assay [1] (Table 1) and 0.005 µM in assay [2] (Table 1).

As for `c1ccc2cc3c(cc2c1)SC1=NCCCN13` [7,8-(CHCHCHCH)], the IC50 in assay [1] (Table 1) was 9 µM; in assay [2] (Table 1), 0.03 µM.

`Nc1cccc2c1SC1=NCCCN12` [Example 9-NH2, 3,4-dihydro-2H-pyrimido[2,1-b]benzothiazol-9-amine dihydrochloride]: the IC50 in assay [1] (Table 1) was determined as 90 µM; in assay [2] (Table 1) it was 0.35 µM.

Consider `CCNc1cccc2c1SC1=NCCCN12` [9-NHC2 H5, N-ethyl-3,4-dihydro-2H-pyrimido[2,1-b]benzothiazol-9-amine], for which the IC50 in assay [1] (Table 1) was determined as 100 µM; in assay [2] (Table 1) it was 0.003 µM.

Regarding `Cc1ccc(C(C)(C)C)c2c1N1CCCN=C1S2` [6-CH3,9-C(CH3)3], the IC50 was > 100 µM in assay [1] (Table 1) and 0.065 µM in assay [2] (Table 1).

With `NC(=O)Nc1ccc2c(c1)N1CCCN=C1S2` [Example 7-NHCONH2, N-(3,4-dihydro-2H-pyrimido[2,1-b]benzothiazol-7-yl)urea], the IC50 in assay [1] (Table 1) was 12 µM; in assay [2] (Table 1), 0.85 µM.

For `CC(C)Nc1ccc2c(c1)SC1=NCCCN12` [8-NHi.C3 H7], the IC50 turned out to be 20 µM in assay [1] (Table 1) and 0.09 µM in assay [2] (Table 1).

`CCCc1ccc2c(c1)N1CCCN=C1S2` [7-C3 H7]: the IC50 is 1.2 µM in assay [1] (Table 1) and 0.02 µM in assay [2] (Table 1).

Regarding `CC[N+]1=C2Sc3ccc(NC(C)C)cc3N2CCC1`, the IC50 worked out at 45 µM in assay [1] (Table 2) and 0.011 µM in assay [2] (Table 2).

Consider `O=C(c1ccccc1)c1ccc2c(c1)N1CCCN=C1S2` [7-COC6 H5], for which the figures for the IC50 in assay [1] (Table 1) and in assay [2] (Table 1) were 2.5 µM and 0.12 µM, respectively.

With `CCCCc1ccc2c(c1)SC1=NCCCN12` [8-C4 H9], the results for the IC50 in assay [1] (Table 1) and in assay [2] (Table 1) were 0.26 µM and 0.032 µM, respectively.

Consider `COc1ccc(CNc2ccc3c(c2)N2CCCN=C2S3)cc1` [7-NHCH2 (4-OCH3C6 H4)], for which the IC50 in assay [1] (Table 1) came out at 0.065 µM; in assay [2] (Table 1), 0.25 µM.
